Patent publication US4076814A, “Preventive and curative compositions against mycoplasmosis” (Sankyo Company Limited, priority 1975, dated 1978)
≈ marks a conversion by molar mass, not a printed value.

Columns and labels:
Mycoplasma gallisepticum = assay: Antimicrobial test, conventional agar plate dilution method, Mycoplasma gallisepticum; assay type: cell-based; conditions: Mycoplasmoides gallisepticum, read-out: Minimum Inhibitory Concentration, Mycoplasma gallisepticum
Description: (§1) ANTIMICROBIAL TEST AGAINST THREE STRAINS OF MYCOPLASMA
(§2) The test was effected by a conventional agar plate dilution method using the indicated strains of mycoplasma. The dithiocarbamic acid derivatives as shown below with Compound Nos. were employed in the test.

Mycoplasma pulmonis = assay: Antimicrobial test, conventional agar plate dilution method, Mycoplasma pulmonis; assay type: cell-based; conditions: Mycoplasma, read-out: Minimum Inhibitory Concentration, Mycoplasma pulmonis
Description: as §1, §2

Mycoplasma hyorhinis = assay: Antimicrobial test, conventional agar plate dilution method, Mycoplasma hyorhinis; assay type: cell-based; conditions: Mycoplasma, read-out: Minimum Inhibitory Concentration, Mycoplasma hyorhinis
Description: as §1, §2

[1] = system: MRL-4 strain of mycoplasma pulmonis; assay: Curative effect in mice infected with MRL-4 strain of mycoplasma pulmonis by oral administration in feed; assay type: in vivo; conditions: 10 days, after one month
Method: Each of the dithiocarbamic acid derivatives as indicated below with Compound No. was added to a feed and administered orally to mice infected artificially with MRL-4 strain of mycoplasma pulmonis. The effectiveness of the treatment was evaluated. Six groups, each group consisting of ten female mice which were negative in the test for mycoplasmosis, were used. After MRL-4 strain of mycoplasma pulmonis was cultured in PPLO agar medium, the colonies of the surface of the medium were diluted with a phosphate buffer solution to prepare a solution containing about 10^9 /ml of mycoplasma. 0.1 ml of the microbe-containing solution was injected intravenously to the tail of each mouse. For consecutive 10 days from the next day of the injection, the mice were fed with a powdery feed containing the active compound at respective concentrations of 0.04, 0.02, 0.01 and 0.005%, respectively. During the experiment period, all the procedures were conducted in a vinyl isolater.
After one month from the starting of the experiment, the presence of arthritis was visually investigated and at the same time the presence of pneumonia was also investigated after dissection. Recovery tests of mycoplasma and general bacteria were conducted using the joints and lungs of host subjects as the testing materials.

SMILES | MIC (Mycoplasma gallisepticum) | MIC (Mycoplasma pulmonis) | MIC (Mycoplasma hyorhinis) | Attack rate arthritis ([1]; 0.005% in feed) | Attack rate pneumonia ([1]; 0.005% in feed) | Recovery of mycoplasma joint ([1]; 0.005% in feed) | Recovery of mycoplasma lung ([1]; 0.005% in feed) | Attack rate arthritis ([1]; 0.01% in feed) | Attack rate pneumonia ([1]; 0.01% in feed) | Recovery of mycoplasma joint ([1]; 0.01% in feed) | Recovery of mycoplasma lung ([1]; 0.01% in feed) | Attack rate arthritis ([1]; 0.02% in feed) | Attack rate pneumonia ([1]; 0.02% in feed) | Recovery of mycoplasma joint ([1]; 0.02% in feed) | Recovery of mycoplasma lung ([1]; 0.02% in feed) | Attack rate arthritis ([1]; 0.04% in feed) | Attack rate pneumonia ([1]; 0.04% in feed) | Recovery of mycoplasma joint ([1]; 0.04% in feed) | Recovery of mycoplasma lung ([1]; 0.04% in feed)
CCN(CC)C(=S)SCCC(=O)c1ccccc1 [compound 24, 2-Benzoylethyl diethyldithiocarbamate] | 0.05 µg/mL (≈ 0.178 µM) | 0.2 µg/mL (≈ 0.711 µM) | 0.39 µg/mL (≈ 1.39 µM) | 4/10 | 0/10 | 4/10 | 0/10 | 3/10 | 0/10 | 3/10 | 0/10 | 2/10 | 0/10 | 2/10 | 0/10 | 0/10 | 0/10 | 0/10 | 0/10
O=C1CCCCC1CSC(=S)N1CCOCC1 (stereo not shown) [Compound No. 12, 2-Oxocyclohexylmethyl 4-morpholinecarbodithioate] | 0.05 µg/mL (≈ 0.183 µM) | 0.2 µg/mL (≈ 0.731 µM) | 0.39 µg/mL (≈ 1.43 µM) | 6/10 | 0/10 | 6/10 | 0/10 | 4/10 | 0/10 | 4/10 | 0/10 | 1/10 | 0/10 | 1/10 | 0/10 | 0/10 | 0/10 | 0/10 | 0/10
CCN(CC)C(=S)SCCC(C)=O [compound 79, 2-Acetylethyl diethyldithiocarbamate] | 0.012 µg/mL (≈ 0.0547 µM) | 0.012 µg/mL (≈ 0.0547 µM) | 0.012 µg/mL (≈ 0.0547 µM) | 2/10 | 0/10 | 2/10 | 0/10 | 0/10 | 0/10 | 0/10 | 0/10 | 0/10 | 0/10 | 0/10 | 0/10 | 0/10 | 0/10 | 0/10 | 0/10
CC(=O)CCSC(=S)N1CCCCC1 [compound 88, 2-Acetylethyl 1-piperidinecarbodithioate] | 0.05 µg/mL (≈ 0.216 µM) | 0.05 µg/mL (≈ 0.216 µM) | 0.025 µg/mL (≈ 0.108 µM) | 3/10 | 0/10 | 3/10 | 0/10 | 1/10 | 0/10 | 1/10 | 0/10 | 0/10 | 0/10 | 0/10 | 0/10 | 0/10 | 0/10 | 0/10 | 0/10
CN1CCN(C(=S)SCCC(=O)c2ccccc2)CC1.Cl [compound 34, 2-Benzoylethyl 4-methyl-1-piperazinecarbodithioate hydrochloride] | 0.05 µg/mL | 0.05 µg/mL | 0.05 µg/mL | – | – | – | – | – | – | – | – | – | – | – | – | – | – | – | –
Cc1cc(CSC(=S)N(C)C)cc(C)c1O [compound 183, 4-Hydroxy-3,5-dimethylbenzyl dimethyldithiocarbamate] | 0.2 µg/mL (≈ 0.783 µM) | 0.2 µg/mL (≈ 0.783 µM) | 0.2 µg/mL (≈ 0.783 µM) | – | – | – | – | – | – | – | – | – | – | – | – | – | – | – | –
